We go through 14 molecules from patent publication US12662451B2, “Chemical compounds and uses thereof” (GLAXOSMITHKLINE INTELLECTUAL PROPERTY (NO.4) LIMITED, priority 2023, dated 2026).

The subject of series [1] is SW48 human colorectal cancer cells. Nature of the series: Calculated free drug potency in SW48 cell assay, corrected with media free fraction (Example C). In kind it is cell-based. Conditions: Homo sapiens, SW48, SW48 pCC50 corrected with measured free fraction in cell assay media. The method, boiled down: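 Compound spiked at nominal 1 μM into cell assay medium and dialysed against PBS (100 mM sodium phosphate, 150 mM NaCl, pH 7.4) by rapid equilibrium dialysis, 4 h, 37 °C, shaking. Percent unbound from LC-MS/MS peak area ratios (240 min vs 0 min); cell assay concentrations corrected by this free fraction.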

The nature of series [2]: Cell culture media unbound percentage and stability by rapid equilibrium dialysis (Example C). In kind it is in vitro ADME. Conditions: bovine, cell assay medium (RPMI-1640 with 10% fetal bovine serum), pH 7.4, rapid equilibrium dialysis, 4 hours at 37° C., read-out: Cell Culture Media Binding (% unbound). The method, boiled down:
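Compound spiked into cell culture medium at nominal 1 μM and dialysed against PBS (100 mM sodium phosphate + 150 mM NaCl, pH 7.4) by rapid equilibrium dialysis, triplicate, 4 h at 37° C with shaking. LC-MS/MS peak area ratios gave percent unbound (receiver/donor) and percent stability (240 min vs 0 min).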
In general terms: In equilibrium dialysis only unbound substance equilibrates across the membrane.

Series [3] has as its target T1, recombinant full-length WRN protein (1-1432) (Homo sapiens, UniProt Q14191).
T1 construct: recombinant full-length WRN protein (1-1432)
Briefly: WRN unwinding activity, fluorogenic 384-well assay (Example A). Type of series: biochemical. Conditions: WRN unwinding activity, 4 hr; Table 2; read-out: 4 hr UNW pIC50 (converted). In outline: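 200 pM enzyme (2× stock) preincubated with compound 4 h at ambient temperature, then 200 μM ATP and 12 nM quenched TAMRA-labelled dsDNA (2× stocks) added for 60 min; EDTA-quenched. Buffer 25 mM Tris pH 8.0, 5 mM NaCl, 2 mM MgCl2. Fluorescence at 525/598 nm; pIC50 from four-parameter fit.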

In series [4] the test system is SW48 human colorectal cancer cells (MSI-H cancer cells). Briefly: SW48 cell viability, CellTiter-Glo, 120 hours (Example B). Conditions: for CC50: Homo sapiens.
Description: SW48 human colorectal cancer cells (MSI-H cancer cells) were obtained from the American Type Culture Collection and maintained in growth medium composed of RPMI-1640 supplemented with 10% fetal bovine serum. Cells were maintained in a humidified 5% CO2 incubator at 37° C. Cell dissociation was conducted using TrypLE Select to detach cells from culture flasks. Following dissociation, cells were centrifuged briefly and resuspended in assay medium RPMI-1640+10% fetal bovine serum. Black 384-well assay plates were prepared from source plates of DMSO and compounds dissolved in DMSO prior to cell dispensation. These source plates were prepared in eleven point, 3-fold serial dilutions from 10 mM stocks stored at 4° C. Compounds and DMSO controls were dispensed into assay plates at 150 nanoliters per well from source plates using Labcyte Echo 555 or Echo 655T dispensers with Column 6 and Column 18 containing DMSO only. Cells were then seeded into prepared assay plates in 50 microliters assay medium at 250 cells per well into Columns 1 thru 17 and Columns 19-24. Assay medium without cells was added to column 18 to serve as a surrogate for 100% cell cytotoxicity. Following incubation for 120 hours in a humidified 5% CO2 incubator at 37° C., cellular ATP concentration of each well was measured and used as a surrogate of cell viability. This was performed by adding 50 microliters of CellTiter-Glo reagent to each well followed by a 10-minute incubation at room temperature. Luminescence was measured on a Synergy Neo or Synergy Neo2 multimode plate reader. Compound cytotoxic response (% C) was normalized to the robust means of column 6 (Control 1, 0% Cytotoxicity) and column 18 (Control 2, 100% Cytotoxicity) and normalized % cytotoxicity (% C) calculated. % C=100−100*((Compound−Control 2)/(Control1−Control2)). These normalized data were then used to determine a 50% cytotoxic response (CC50) using 4-parameter logistic curve model 201 in Activity Base XE:
[formula] • where A=minimum asymptote (% cytotoxicity), B=maximum asymptote (% cytotoxicity), C=Log CC50 (pCC50), D=Hill slope, and x=[inhibitor], (M).
Setting [5] is: SW48, 120 h, read-out: SW48 pCC50, SW48 cell viability, 120 hours incubation (converted), Table 2.
[6] abbreviates: SW48, read-out: SW48 pCC50, measured potency from Example B, as repeated in Table 3 (converted).

Like-named read-outs stand apart in the source and are kept apart here.

T1 sequence (Q14191 whole entry): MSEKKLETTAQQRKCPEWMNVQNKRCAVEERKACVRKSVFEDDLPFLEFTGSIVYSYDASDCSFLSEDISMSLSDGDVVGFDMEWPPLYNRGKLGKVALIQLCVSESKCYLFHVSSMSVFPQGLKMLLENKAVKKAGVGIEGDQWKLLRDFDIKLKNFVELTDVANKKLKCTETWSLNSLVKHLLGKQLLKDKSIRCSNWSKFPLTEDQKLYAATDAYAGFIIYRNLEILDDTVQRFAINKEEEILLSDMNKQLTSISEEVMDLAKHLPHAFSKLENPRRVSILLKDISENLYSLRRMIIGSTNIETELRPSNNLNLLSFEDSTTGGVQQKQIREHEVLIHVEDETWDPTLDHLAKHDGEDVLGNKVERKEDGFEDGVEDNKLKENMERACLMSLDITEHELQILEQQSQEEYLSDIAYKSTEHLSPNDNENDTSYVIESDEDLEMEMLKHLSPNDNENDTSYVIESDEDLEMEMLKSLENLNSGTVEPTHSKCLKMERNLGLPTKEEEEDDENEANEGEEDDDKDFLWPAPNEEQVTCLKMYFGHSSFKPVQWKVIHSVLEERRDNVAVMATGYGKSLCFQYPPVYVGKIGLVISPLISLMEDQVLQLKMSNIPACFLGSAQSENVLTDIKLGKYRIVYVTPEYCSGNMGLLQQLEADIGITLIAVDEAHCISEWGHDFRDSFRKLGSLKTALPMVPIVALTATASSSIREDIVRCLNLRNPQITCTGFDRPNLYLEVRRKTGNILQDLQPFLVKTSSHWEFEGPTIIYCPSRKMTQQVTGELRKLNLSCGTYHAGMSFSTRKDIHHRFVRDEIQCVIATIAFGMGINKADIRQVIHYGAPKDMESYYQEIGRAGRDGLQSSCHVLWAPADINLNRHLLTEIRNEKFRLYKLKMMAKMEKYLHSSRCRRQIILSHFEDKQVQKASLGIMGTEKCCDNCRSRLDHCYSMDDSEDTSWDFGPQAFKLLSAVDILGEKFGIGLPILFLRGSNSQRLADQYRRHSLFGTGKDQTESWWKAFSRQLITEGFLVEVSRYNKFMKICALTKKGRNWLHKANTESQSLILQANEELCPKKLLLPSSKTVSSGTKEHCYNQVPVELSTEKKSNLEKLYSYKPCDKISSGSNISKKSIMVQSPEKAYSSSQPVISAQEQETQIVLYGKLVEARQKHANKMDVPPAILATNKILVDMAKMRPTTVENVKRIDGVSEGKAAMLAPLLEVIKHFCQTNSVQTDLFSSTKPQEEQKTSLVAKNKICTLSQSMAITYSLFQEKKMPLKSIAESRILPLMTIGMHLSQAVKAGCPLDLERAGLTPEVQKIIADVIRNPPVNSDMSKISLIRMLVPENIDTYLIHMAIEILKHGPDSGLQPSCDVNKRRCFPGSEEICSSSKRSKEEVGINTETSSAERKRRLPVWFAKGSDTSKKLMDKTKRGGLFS

Regarding `Cc1nc2cc(S(=O)(=O)N(C)c3ccc([C@H]4C[C@@H](N5CC[C@H](F)C5)C[C@@H](C(=O)Nc5ccc(C(F)(F)F)cc5F)[C@@H]4C(=O)O)cc3)ccc2n1C` (stereo in doubt) [Example 377, rel-(1R*,2R*,4R*,6S*)-2-((2-fluoro-4-(trifluoromethyl)phenyl)carbamoyl)-4-((S)-3-fluoropyrrolidin-1-yl)-6-(4-((N,1,2-trimethyl-1H-benzo[d]imidazole)-5-sulfonamido)phenyl)cyclohexane-1-carboxylic acid], the figures for the CC50 in series [1], in series [4] (setting [5]) and in series [4] (setting [6]) were 8.91 nM, 126 nM and 126 nM, respectively. Further, the fraction unbound at 4 h, 1 µM in series [2] stood at 0.071. Further, the IC50 in series [3] was 5.01 nM.

Consider `Cc1nc2cc(S(=O)(=O)N(C)c3ccc([C@@H]4C[C@H](N5CC[C@H](F)C5)C[C@H](C(=O)Nc5ccc(C(F)(F)F)cc5F)[C@H]4C(=O)O)cc3)ccc2n1C` (stereo in doubt) [Example 378, rel-(1R*,2R*,4R*,6S*)-2-((2-fluoro-4-(trifluoromethyl)phenyl)carbamoyl)-4-((S)-3-fluoropyrrolidin-1-yl)-6-(4-((N,1,2-trimethyl-1H-benzo[d]imidazole)-5-sulfonamido)phenyl)cyclohexane-1-carboxylic acid], for which the values for the CC50 in series [1], in series [4] (setting [5]) and in series [4] (setting [6]) were 832 nM, 3980 nM and 3980 nM, respectively. For the same molecule, in series [2], the fraction unbound at 4 h, 1 µM was 0.208. Moreover, the IC50 in series [3] was 50.1 nM.

Turning to `Cc1nc2cc(S(=O)(=O)N(C)c3ccc([C@H]4C[C@H](N5CC[C@H](F)C5)C[C@@H](C(=O)Nc5ccc(C(F)(F)F)cc5F)[C@@H]4C(=O)O)cc3)ccc2n1C` (stereo in doubt) [Example 380, rel-(1R*,2R*,4S*,6S*)-2-((2-fluoro-4-(trifluoromethyl)phenyl)carbamoyl)-4-((S)-3-fluoropyrrolidin-1-yl)-6-(4-((N,1,2-trimethyl-1H-benzo[d]imidazole)-5-sulfonamido)phenyl)cyclohexane-1-carboxylic acid], the CC50 is 331 nM in series [1] and 10000 nM in series [4] (setting [5]). In addition, the fraction unbound at 4 h, 1 µM in series [2] came to 0.0334. The IC50 in series [3] was 39.8 nM.

With `Cc1nc2cc(S(=O)(=O)N(C)c3ccc([C@@H]4C[C@H](N5CC[C@@H](F)C5)C[C@H](C(=O)Nc5ccc(C(F)(F)F)cc5F)[C@H]4C(=O)O)cc3)ccc2n1C` (stereo in doubt) [Example 381, rel-(1R*,2R*,4R*,6S*)-2-((2-fluoro-4-(trifluoromethyl)phenyl)carbamoyl)-4-((R)-3-fluoropyrrolidin-1-yl)-6-(4-((N,1,2-trimethyl-1H-benzo[d]imidazole)-5-sulfonamido)phenyl)cyclohexane-1-carboxylic acid], the CC50 was 2450 nM in series [1], 7940 nM in series [4] (setting [5]) and 7940 nM in series [4] (setting [6]). The fraction unbound at 4 h, 1 µM in series [2] stood at 0.308. Further, the IC50 in series [3] is 79.4 nM.

For the molecule `Cc1nc2cc(S(=O)(=O)N(C)c3ccc([C@H]4C[C@@H](N5CC[C@@H](F)C5)C[C@@H](C(=O)Nc5ccc(C(F)(F)F)cc5F)[C@@H]4C(=O)O)cc3)ccc2n1C` (stereo in doubt) [Example 382, rel-(1R*,2R*,4R*,6S*)-2-((2-fluoro-4-(trifluoromethyl)phenyl)carbamoyl)-4-((R)-3-fluoropyrrolidin-1-yl)-6-(4-((N,1,2-trimethyl-1H-benzo[d]imidazole)-5-sulfonamido)phenyl)cyclohexane-1-carboxylic acid], the values for the CC50 in series [1], in series [4] (setting [5]) and in series [4] (setting [6]) were 8.51 nM, 63.1 nM and 63.1 nM, respectively. Also, the fraction unbound at 4 h, 1 µM in series [2] was found to be 0.136. Besides, the IC50 in series [3] was 1.58 nM.

As for `Cc1nc2cc(S(=O)(=O)N(C)c3ccc([C@H]4C[C@H](N5CC[C@@H](F)C5)C[C@@H](C(=O)Nc5ccc(C(F)(F)F)cc5F)[C@@H]4C(=O)O)cc3)ccc2n1C` (stereo in doubt) [Example 383, rel-(1R*,2R*,4S*,6S*)-2-((2-fluoro-4-(trifluoromethyl)phenyl)carbamoyl)-4-((R)-3-fluoropyrrolidin-1-yl)-6-(4-((N,1,2-trimethyl-1H-benzo[d]imidazole)-5-sulfonamido)phenyl)cyclohexane-1-carboxylic acid], the CC50 is 468 nM in series [1], 7940 nM in series [4] (setting [5]) and 7940 nM in series [4] (setting [6]). Further, the fraction unbound at 4 h, 1 µM in series [2] was determined as 0.0589. Also, the IC50 in series [3] is 7.94 nM.

Turning to `Cc1cc(N(C)S(=O)(=O)c2ccc3c(c2)nc(C)n3C)ccc1[C@H]1CCC[C@@H](C(=O)Nc2ccc(C(F)(F)F)cc2F)[C@@H]1C(=O)O` (stereo in doubt) [Example 386, rel-(1R,2R,6S)-2-((2-fluoro-4-(trifluoromethyl)phenyl)carbamoyl)-6-(2-methyl-4-((N,1,2-trimethyl-1H-benzo[d]imidazole)-5-sulfonamido)phenyl)cyclohexane-1-carboxylic acid], the CC50 in series [1] is 200 nM; in series [4] (setting [5]) it was 2000 nM; in series [4] (setting [6]), 2000 nM. Moreover, the fraction unbound at 4 h, 1 µM in series [2] was determined as 0.1. In addition, the IC50 in series [3] was 3.98 nM.

On to `Cc1nc2cc(S(=O)(=O)N(C)c3ccc([C@H]4C[C@H]5COC[C@H]5[C@@H](C(=O)Nc5ccc(C(F)(F)F)cc5F)[C@@H]4C(=O)O)cc3)ccc2n1C` (stereo in doubt) [Example 392, rel-(3aR,4R,5R,6S,7aR)-4-((2-fluoro-4-(trifluoromethyl)phenyl)carbamoyl)-6-(4-((N,1,2-trimethyl-1H-benzo[d]imidazole)-5-sulfonamido)phenyl)octahydroisobenzofuran-5-carboxylic acid], for which the CC50 in series [1] is 25.1 nM; in series [4] (setting [5]), 251 nM; in series [4] (setting [6]), 251 nM. Besides, the fraction unbound at 4 h, 1 µM in series [2] was 0.0993. Besides, the IC50 in series [3] was 1.58 nM.

As to `O=C(O)[C@@H]1[C@@H](c2ccc(-c3cnsc3)cc2)CCC[C@H]1C(=O)Nc1ccc(C(F)(F)F)cc1F` [Example 16, (1R,2R,6S)-2-((2-fluoro-4-(trifluoromethyl)phenyl)carbamoyl)-6-(4-(isothiazol-4-yl)phenyl)cyclohexane-1-carboxylic acid], the CC50 in series [1] is 200 nM; in series [4] (setting [5]), 3980 nM; in series [4] (setting [6]) it was 3980 nM. In addition, the fraction unbound at 4 h, 1 µM in series [2] is 0.0499. The IC50 in series [3] was 3.98 nM.

For the molecule `CN(c1ccc([C@H]2CCC[C@@H](C(=O)Nc3ccc(C(F)(F)F)cc3F)[C@@H]2C(=O)O)cc1)S(=O)(=O)c1cc(I)c2occc2c1` [Example 94, (1R,2R,6S)-2-((2-fluoro-4-(trifluoromethyl)phenyl)carbamoyl)-6-(4-((7-iodo-N-methylbenzofuran)-5-sulfonamido)phenyl)cyclohexane-1-carboxylic acid], the values for the CC50 in series [1] and in series [4] (setting [6]) were 5.62 nM and 3980 nM, respectively. The fraction unbound at 4 h, 1 µM in series [2] stood at 0.0014. In addition, the IC50 in series [3] was 50.1 nM. The “SW48 pCC50” value in series [4] (SW48 cell viability, 120 hours incubation, Table 2) amounted to 5.4.

In the case of `CN(C)Cc1cccc(S(=O)(=O)N(C)c2ccc([C@H]3CCC[C@@H](C(=O)Nc4ccc(C(F)(F)F)cc4F)[C@@H]3C(=O)O)cc2)c1` [Example 97], the CC50 in series [1] was 240 nM; in series [4] (setting [5]), 1000 nM; in series [4] (setting [6]) it was 1000 nM. For the same molecule, the fraction unbound at 4 h, 1 µM in series [2] stood at 0.241. The IC50 in series [3] was 2 nM.

As to `CN(c1ccc([C@H]2CCC[C@@H](C(=O)Nc3ccc(C(F)(F)F)cc3F)[C@@H]2C(=O)O)cc1)S(=O)(=O)c1ccc2scnc2c1` [Example 101, (1R,2R,6S)-2-((2-fluoro-4-(trifluoromethyl)phenyl)carbamoyl)-6-(4-(N-methylbenzo[d]thiazole-5-sulfonamido)phenyl)cyclohexane-1-carboxylic acid], the values for the CC50 in series [1], in series [4] (setting [5]) and in series [4] (setting [6]) were 43.7 nM, 1260 nM and 1260 nM, respectively. The fraction unbound at 4 h, 1 µM in series [2] is 0.0349. Further, the IC50 in series [3] is 5.01 nM.

On to `CN(c1ccc([C@H]2CCC[C@@H](C(=O)Nc3ccc(C(F)(F)F)cc3F)[C@@H]2C(=O)O)cc1)S(=O)(=O)c1ccc2c(ccn2C)c1` [Example 107, (1R,2S,6R)-2-(4-((N, 1-dimethyl-1H-indole)-5-sulfonamido)phenyl)-6-((2-fluoro-4-(trifluoromethyl)phenyl)carbamoyl)cyclohexane-1-carboxylic acid], for which the CC50 in series [1] was 19.5 nM; in series [4] (setting [5]), 794 nM; in series [4] (setting [6]), 794 nM. The fraction unbound at 4 h, 1 µM in series [2] turned out to be 0.0245. In addition, the IC50 in series [3] is 5.01 nM.

For `CN(c1ccc([C@H]2CCC[C@@H](C(=O)Nc3ccc(C(F)(F)F)cc3F)[C@@H]2C(=O)O)cc1)S(=O)(=O)c1ccccc1` [Example 109, (1R,2R,6S)-2-((2-fluoro-4-(trifluoromethyl)phenyl)carbamoyl)-6-(4-(N-methylphenylsulfonamido)phenyl)cyclohexane-1-carboxylic acid], the values for the CC50 in series [1], in series [4] (setting [5]) and in series [4] (setting [6]) were 105 nM, 1260 nM and 1260 nM, respectively. The fraction unbound at 4 h, 1 µM in series [2] was found to be 0.0829. The IC50 in series [3] is 1 nM.
